Results published in patent publication US4332805A, “Decahydroquinolinol derivatives and methods of treating cardiac arrythmias or inducing local anaesthesia with them” (priority 1979, dated 1982).
Counter-ions that a name gives are not always drawn.

assay: LAWSON test: protection against chloroform-induced ventricular fibrillation; type: in vivo, mice; settings: Mus musculus, po, 0.5 h; female mice, intragastric, 30 minutes before chloroform; salts (hydrochloride); read-out: AD50 (dose protecting 50% of the animals against ventricular fibrillation)
Procedure: The arrhythmia was induced, in this test, by inhalation of chloroform until breathing stopped.
For each dose of the substance to be studied, batches of 10 female mice, each of about 20 g, were used. These mice had been fasting for 18 hours before the test. A batch of 10 animals was used as control group.
A dose of the compound to be studied was first administered by intragastric route except to the controls which only received the solvent used with the compound in question. Thirty minutes later, the animals were placed under a dome-shaped receptacle containing a high concentration of chloroform obtained by means of a strongly impregnated pad.
The animals were removed when totally asphyxiated (about 2 minutes later), the thorax was rapidly opened and the ventricular rhythm observed. The dose of the compound under study which protected 50% of the animals against ventricular fibrillation was then determined.
This protective dose is expressed as AD50 in mg/kg in the following Table. […]
Another comparative test was performed under the same conditions with
several compounds included within the scope of U.S. Pat. No. 3,882,129 at
the single dose of 100 mg/kg by intragastric route.
The following results were obtained which are expressed in percentage of protection obtained against the arrhythmic effect at the studied dose: […]

Compound | ED50
NC(=O)O[C@@H]1CCN(CCOc2ccc(F)cc2)[C@H]2CCCC[C@H]12 (relative stereo) [hydrogen, 2, O, 4-fluoro-phenyl, axial, 4-Carbamoyloxy-1-[2-(4-fluoro-phenoxy)-ethyl]-trans-decahydroquinoline hydrochloride (axial form)] | > 100 mg/kg
NC(=O)O[C@@H]1CCN(CCCOc2ccccc2)[C@H]2CCCC[C@H]12 (relative stereo) [hydrogen, 3, O, phenyl, axial, 4-Carbamoyloxy-1-(3-phenoxy-propyl)-trans-decahydroquinoline hydrochloride (axial form)] | > 100 mg/kg
CCNC(=O)O[C@@H]1CCN(CCCOc2ccc(F)cc2)[C@H]2CCCC[C@H]12 (relative stereo) [ethyl, 3, O, 4-fluoro-phenyl, axial, 4-(N-Ethylcarbamoyloxy)-1-[3-(4-fluoro-phenoxy)-propyl]-trans-decahydroquinoline hydrochloride (axial form)] | 50 mg/kg
O=C(Nc1ccc(Br)cc1)O[C@H]1CCN(CCCOc2ccc(F)cc2)[C@H]2CCCC[C@H]12 (relative stereo) [4-[(4-Bromo-phenyl)-carbamoyloxy]-1-[3-(4-fluoro-phenoxy)-propyl]-trans-decahydroquinoline hydrochloride (equatorial form)] | 120 mg/kg
NC(=O)O[C@@H]1CCN(CCOc2cccc3ccccc23)[C@H]2CCCC[C@H]12 (relative stereo) [hydrogen, 2, O, 1-naphthyl, axial, 4-Carbamoyloxy-1-[2-(1-naphthyloxy)-ethyl]-trans-decahydroquinoline hydrochloride (axial form)] | 75 mg/kg
O=C(Nc1ccc(Br)cc1)O[C@@H]1CCN(CCCOc2ccc(F)cc2)[C@H]2CCCC[C@H]12 (relative stereo) [4-[(4-Bromo-phenyl)-carbamoyloxy]-[1-3-(4-fluoro-phenoxy)-propyl]-trans-decahydroquinoline hydrochloride (axial form)] | 150 mg/kg
Cc1ccc(NC(=O)O[C@H]2CCN(CCCOc3ccc(F)cc3)[C@H]3CCCC[C@H]23)cc1Cl (relative stereo) [4-[(3-Chloro-4-methyl-phenyl)-carbamoyloxy]-1-[3-(4-fluoro-phenoxy)-propyl]-trans-decahydroquinoline hydrochloride (equatorial form)] | 30 mg/kg
N#Cc1ccc(OCCCN2CC[C@@H](OC(N)=O)[C@H]3CCCC[C@@H]32)cc1 (relative stereo) [hydrogen, 3, O, 4-cyano-phenyl, axial, 4-Carbamoyloxy-1-[3-(4-cyano-phenoxy)-propyl]-trans-decahydroquinoline hydrochloride (axial form)] | 30 mg/kg
CC(=O)c1ccc(OCCCN2CC[C@@H](OC(N)=O)[C@H]3CCCC[C@@H]32)cc1 (relative stereo) [hydrogen, 3, O, 4-acetyl-phenyl, axial, 1-[3-(4-Acetyl-phenoxy)-propyl]-4-carbamoyloxy-trans-decahydroquinoline hydrochloride (axial form)] | > 100 mg/kg
COc1cc(C(C)=O)ccc1OCCCN1CC[C@@H](OC(=O)Nc2ccc(Br)cc2)[C@H]2CCCC[C@@H]21 (relative stereo) [1-[3-(4-Acetyl-2-methoxy-phenoxy)-propyl]-4-[4-(bromo-phenyl)-carbamoyloxy]-trans-decahydroquinoline hydrochloride (axial form)] | > 100 mg/kg
NC(=O)O[C@@H]1CCN(CCCOc2ccc(Cl)cc2)[C@H]2CCCC[C@H]12 (relative stereo) [hydrogen, 3, O, 4-chloro-phenyl, axial, 4-Carbamoyloxy-1-[3-(4-chloro-phenoxy)-propyl]-trans-decahydroquinoline hydrochloride (axial form)] | > 100 mg/kg
NC(=O)O[C@@H]1CCN(CCOc2c(Cl)cccc2Cl)[C@H]2CCCC[C@H]12 (relative stereo) [4-Carbamoyloxy-1-[2-(2,6-dichloro-phenoxy)-ethyl]-trans-decahydroquinoline hydrochloride (axial form)] | 50 mg/kg
NC(=O)O[C@@H]1CCN(CCCOc2ccc3ccccc3c2)[C@H]2CCCC[C@H]12 (relative stereo) [hydrogen, 3, O, 2-naphthyl, axial, 4-Carbamoyloxy-1-[3-(2-naphthyloxy)-propyl]-trans-decahydroquinoline hydrochloride (axial form)] | > 100 mg/kg
COc1cc(C(C)=O)ccc1OCCCN1CC[C@@H](OC(N)=O)[C@H]2CCCC[C@@H]21 (relative stereo) [1-[3-(4-Acetyl-2-methoxy-phenoxy)-propyl]-4-carbamoyloxy-trans-decahydroquinoline hydrochloride (axial form)] | > 100 mg/kg
NC(=O)O[C@@H]1CCN(CCOc2ccc3ccccc3c2)[C@H]2CCCC[C@H]12 (relative stereo) [hydrogen, 2, O, 2-naphthyl, axial, 4-Carbamoyloxy-1-[2-(2-naphthyloxy)-ethyl]-trans-decahydroquinoline hydrochloride (axial form)] | 50 mg/kg
Cc1ccc(NC(=O)O[C@@H]2CCN(CCCOc3ccc(F)cc3)[C@H]3CCCC[C@H]23)cc1Cl (relative stereo) [4-[3-(Chloro-4-methyl-phenyl)-carbamoyloxy]-1-[3-(4-fluoro-phenoxy)-propyl]-trans-decahydroquinoline hydrochloride (axial form)] | > 100 mg/kg
CCCCNC(=O)O[C@@H]1CCN(CCCOc2ccc(F)cc2)[C@H]2CCCC[C@H]12 (relative stereo) [n-butyl, 3, O, 4-fluoro-phenyl, axial, 4-(N-n-butylcarbamoyloxy)-1-[3-(4-fluoro-phenoxy)-propyl]-trans-decahydroquinoline hydrochloride (axial form)] | 50 mg/kg
NC(=O)O[C@@H]1CCN(CCCSc2ccc(F)cc2)[C@H]2CCCC[C@H]12 (relative stereo) [hydrogen, 3, S, 4-fluoro-phenyl, axial, 4-Carbamoyloxy-1-[3-(4-fluoro-phenylthio)-propyl]-trans-decahydroquinoline hydrochloride (axial form)] | > 100 mg/kg
O=C(Nc1ccccc1)O[C@@H]1CCN(CCCOc2ccc(F)cc2)[C@H]2CCCC[C@H]12 (relative stereo) [phenyl, 3, O, 4-fluoro-phenyl, axial, 1-[3-(4-Fluoro-phenoxy)-propyl]-4-(N-phenylcarbamoyloxy)-trans-decahydroquinoline hydrochloride (axial form)] | > 100 mg/kg
Cc1ccc(OCCCN2CC[C@@H](OC(N)=O)[C@H]3CCCC[C@@H]32)cc1 (relative stereo) [hydrogen, 3, O, 4-methyl-phenyl, axial, 4-Carbamoyloxy-1-[3-(4-methyl-phenoxy)-propyl]-trans-decahydroquinoline hydrochloride (axial form)] | > 100 mg/kg
NC(=O)O[C@H]1CCN(CCCOc2ccc(F)cc2)[C@H]2CCCC[C@H]12 (relative stereo) [4-Carbamoyloxy-1-[3-(4-fluoro-phenoxy)-propyl]-trans-decahydroquinoline hydrochloride (equatorial form)] | 45 mg/kg

same assay, conditions: female mice, intragastric, 30 minutes before chloroform; salts (hydrochloride)

Compound | AD50 (dose protecting 50% of the animals against ventricular fibrillation)
CNC(=O)O[C@@H]1CCN(CCCOc2ccc(F)cc2)[C@H]2CCCC[C@H]12 (relative stereo) [methyl, 3, O, 4-fluoro-phenyl, axial, 1-[3-(4-Fluoro-phenoxy)-propyl]-4-(N-methylcarbamoyloxy)-trans-decahydroquinoline hydrochloride (axial form)] | 55 mg/kg
